Measurements published in US20240075050A1, “Methods and Compositions for Treating Leucine Rich Repeat Kinase 2 (LRRK2)-Associated Disorder or Condition” (University of Connecticut, priority 2022, published 2024).

Tested on: CD68
Test: LPS-induced neuroinflammation in mice, CD68 levels
Format: in vivo, mouse
Conditions: 21 days; for LPS-induced CD68 levels in SNpc: AICAr 2.4 μg/day/animal, immunostaining
Description: FIGS. 9A-9F depict that AICAr rescues LPS-induced DA neurodegeneration and inflammation in mice, which acts through LRRK2. FIG. 9A depicts representative images of DAneuron staining. WT and LRRK-KO mice were injected with 1 ul LPS (5 ug/animal) or phosphate buffered saline (PBS) into the substantia nigra pars compacta (SNpc) and administrated with AICAr (2.4 μg/day/animal) or saline to same stereotaxic coordinates using osmotic pumps. After 21 days of injection, DA neurons were stained by anti-tyrosine hydroxylase (TH) antibody. Scale bars, […]. FIG. 9B depicts quantification of TH positive neurons in substantia nigra pars compacta (SNpc) using an unbiased stereological method with stereo investigator software from 7-8 animals per group. FIG. 9C depicts quantification of Niss1-positive neurons in SNpc using an unbiased stereological method with stereo investigator software from 7-8 animals per group. FIG. 9D depicts the CD68 levels in SNpc tissues near the needle sites analyzed by immunostaining. Scale bars, 100 μm. FIG. 9E depicts the CD68 levels in WT and LRRK-KO mice injected with 1 μl LPS (5 μg/animal) or PBS into striatum followed by administration of AICAr (2.4 μg/day/animal) or saline to same stereotaxic coordinates using osmotic pumps. After 21 days of injection, LRRK2 and CD68 expression in striatal tissues near the needle sites was analyzed by Western blot. FIG. 9F depicts quantification of images from (FIG. 9E) using ImageJ software, n=3 animals per group. Data information: Data are mean±SEM. ***p<0.001, ****p<0.0001 by one-way ANOVA followed by a Tukey's post hoc test. ns: not statistically significant.
Stereotaxic intracranial injection. […]
Immunohistochemistry. […] After antigen retrieval with 10 mM sodium citrate (pH 6.0) and 0.05% Tween-20 at 37° C. for 30 minutes, brain sections were washed in PBS for three times, permeabilized with 0.3% Triton X-100 in PBS, blocked with 10% goat serum in PBS, incubated with anti-tyrosine hydroxylase (TH) antibody overnight at 4° C., and then detected with Biotin-SP goat anti-rabbit IgG antibody at room temperature for 2 hours. […]

## NC(=O)c1ncn([C@@H]2O[C@H](CO)[C@@H](O)[C@H]2O)c1N [AICAr, 5-aminoimidazole-4-carboxamide riboside]
LRRK2 KO mice
  LPS-induced CD68 levels in SNpc: did not significantly rescue
WT mice, AICAr 2.4 μg/day/animal into striatum, Western blot
  CD68 levels stimulated by LPS in striatum: significantly reduced
WT mice
  LPS-induced CD68 levels in SNpc: significantly reduced
